Experimental data: patent US20150065345A1, “1,2,4 - TRIAZOLE DERIVATIVES AS HERBICIDALS” (SYNGENTA LIMITED, priority 2012, published 2015)

Assays:
Format in all cases: in vivo
Details in all cases: 1000 g/h, evaluated after 13 days, five point scale
Lolium perenne (LOLPE) [1] = assay: Glasshouse herbicide test, post-emergence
Method: (§1) Seeds of a variety of test species are sown in standard soil in pots Alopecurus myosuroides (ALOMY), Amaranthus retoflexus (AMARE), Setaria faberi (SETFA), Echinochloa crus-galli (ECHCG), Lolium perenne (LOLPE), Solanum nigrum (SOLNI), Stellaria media (STEME) and Digitaria sanguinalis (DIGSA). After cultivation for one day (pre-emergence) or after 8 days cultivation (post-emergence) under controlled conditions in a glasshouse (at 24/16° C., day/night; 14 hours light; 65% humidity), the plants are sprayed with an aqueous spray solution derived from the formulation of the technical active ingredient in acetone/water (50:50) solution containing 0.5% Tween 20 (polyoxyethelyene sorbitan monolaurate, CAS RN 9005-64-5). Compounds are applied at 1000 g/h. The test plants are then grown in a glasshouse under controlled conditions in a glasshouse (at 24/16° C., day/night; 14 hours light; 65% humidity) and watered twice daily. After 13 days for pre and post-emergence, the test is evaluated for the percentage damage caused to the plant. The biological activities are shown in the following table on a five point scale (5=80-100%; 4=60-79%; 3=40-59%; 2=20-39%; 1=0-19%).

Stellaria media (STEME) [2] = assay: Glasshouse herbicide test, post-emergence
Method: as §1

[3] = tested on: Amaranthus retoflexus (AMARE); assay: Glasshouse herbicide test, post-emergence
Method: as §1

[4] = tested on: Digitaria sanguinalis (DIGSA); assay: Glasshouse herbicide test, post-emergence
Method: as §1

Lolium perenne (LOLPE) [5] = assay: Glasshouse herbicide test, pre-emergence
Method: as §1

Stellaria media (STEME) [6] = assay: Glasshouse herbicide test, pre-emergence
Method: as §1

[7] = tested on: Amaranthus retoflexus (AMARE); assay: Glasshouse herbicide test, pre-emergence
Method: as §1

[8] = tested on: Digitaria sanguinalis (DIGSA); assay: Glasshouse herbicide test, pre-emergence
Method: as §1

## Cn1cnnc1NC(=O)c1ccc(S(C)(=O)=O)c(COCC(F)(F)F)c1Cl [Compound 1.001]
Lolium perenne (LOLPE) [1]
  percentage damage caused to the plant, LOLPE, POST Application: 1 (1=0-19%)
Stellaria media (STEME) [2]
  percentage damage caused to the plant, STEME, POST Application: 5 (5=80-100%)
[3]
  percentage damage caused to the plant, AMARE, POST Application: 5 (5=80-100%)
[4]
  percentage damage caused to the plant, DIGSA, POST Application: 5 (5=80-100%)
Lolium perenne (LOLPE) [5]
  percentage damage caused to the plant, LOLPE, PRE Application: 1 (1=0-19%)
Stellaria media (STEME) [6]
  percentage damage caused to the plant, STEME, PRE Application: 1 (1=0-19%)
[7]
  percentage damage caused to the plant, AMARE, PRE Application: 3 (3=40-59%)
[8]
  percentage damage caused to the plant, DIGSA, PRE Application: 1 (1=0-19%)
